The record followed here is PubChem BioAssay (NCI).

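Method: 48-hour compound exposure of cells in 96-well plates, five concentrations, linear interpolation of endpoints. At the GI50, growth is halved. TGI: total growth inhibition.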

Test systems include A498 renal; HCT-15 colon; MALME-3M melanoma; NCI-H460 lung; OVCAR-3 ovarian; OVCAR-4 ovarian; COLO 205 colon; HOP-92 NSCLC; NCI-H522 lung; LOX IMVI melanoma.
What all share (assay): NCI anticancer screen, dose series, 48 h

Take `CCOC(=O)C(C)(c1c(C)[nH]c2ccccc12)c1c(C)[nH]c2ccccc12`: the TGI was determined as 36.6 µM with A498 renal; 32.5 µM in the test on HCT-15 colon; 43 µM with MALME-3M melanoma; 38.7 µM in the test with NCI-H460 lung; 34 µM in the test with OVCAR-3 ovarian; 32 µM with OVCAR-4 ovarian.

Consider `Cc1ccc(C)c(N2C(=O)C(=O)C(c3nc4ccccc4o3)/C(=N/N)C2=O)c1` (stereo unspecified), for which the TGI in the test on A498 renal, with COLO 205 colon, in the test with HCT-15 colon, with HOP-92 NSCLC, in the test with MALME-3M melanoma and in the test with NCI-H460 lung was more than 100 µM each time. Further, the TGI in the test with NCI-H522 lung, in the test with OVCAR-3 ovarian and in the test on OVCAR-4 ovarian was more than 100 µM throughout.

`COc1cc(OC)c2sc(-c3ccc(-n4cncc4-c4cc(OC)c(OC)c(OC)c4)cc3)nc2c1`: the GI50 is 1.83 µM with A498 renal; 4.51 µM in the test with COLO 205 colon; 5.48 µM in the test on HCT-15 colon; 5.4 µM in the test with LOX IMVI melanoma; 3.73 µM in the test on MALME-3M melanoma; 4.67 µM in the test with NCI-H460 lung. For the same compound, the GI50 with NCI-H522 lung was 3.27 µM; with OVCAR-3 ovarian it was 3.26 µM; in the test on OVCAR-4 ovarian it was 3.25 µM. In addition, the TGI in the test with A498 renal, in the test on COLO 205 colon, with HCT-15 colon, in the test with LOX IMVI melanoma, in the test on MALME-3M melanoma and in the test with NCI-H460 lung was more than 100 µM throughout. In addition, the TGI in the test on NCI-H522 lung, in the test on OVCAR-3 ovarian and in the test with OVCAR-4 ovarian was more than 100 µM throughout.

For the compound `Cn1cc(-c2csc(-c3cn(C)c4ccc(F)cc34)n2)c2cnccc21`, the GI50 in the test with A498 renal is 1.62 µM; with HCT-15 colon it was 1.68 µM; in the test with HOP-92 NSCLC, 1.64 µM; with MALME-3M melanoma, 1.97 µM; with NCI-H460 lung, 1.97 µM; in the test on NCI-H522 lung, 1.77 µM. In addition, the figures for the GI50 with OVCAR-3 ovarian and in the test on OVCAR-4 ovarian were 1.95 µM and 1.7 µM, respectively. For the same compound, the TGI was 3.04 µM in the test on A498 renal; 3.27 µM in the test on HCT-15 colon; 3.26 µM in the test on HOP-92 NSCLC; 3.57 µM in the test on MALME-3M melanoma; 3.71 µM in the test with NCI-H460 lung; 3.34 µM with NCI-H522 lung. Besides, the TGI was 3.48 µM with OVCAR-3 ovarian and 3.16 µM in the test with OVCAR-4 ovarian.

For the compound `COc1ccc(-c2cc(-c3ccc(Nc4ccnc5cc(Cl)ccc45)cc3)nc(N3CCOCC3)n2)cc1`, the GI50 with A498 renal is 27.5 µM; in the test with COLO 205 colon, 3.14 µM; in the test on HOP-92 NSCLC, 4.83 µM; in the test with OVCAR-4 ovarian, 1.83 µM. The TGI with A498 renal is 86.7 µM; in the test on COLO 205 colon, more than 100 µM; in the test on HOP-92 NSCLC, 49.4 µM; in the test with OVCAR-4 ovarian it was 3.57 µM.

`CCCCCCCCCCCCCCCCCCC1=C(O)C(=O)C=C(OC)C1=O`: the TGI in the test on A498 renal is more than 100 µM; with COLO 205 colon it was more than 100 µM; in the test with HCT-15 colon, 97.5 µM; in the test with HOP-92 NSCLC it was more than 100 µM; in the test on MALME-3M melanoma, more than 100 µM; in the test with NCI-H460 lung, more than 100 µM. Moreover, the TGI was 82.2 µM in the test with NCI-H522 lung, more than 100 µM in the test on OVCAR-3 ovarian and more than 100 µM with OVCAR-4 ovarian.

As for `COc1cc(C(=O)O[C@H](C(N)=O)[C@]2(C)CO2)c2cccc(C)c2c1`, the GI50 with A498 renal was 4.31 µM; with HCT-15 colon, 0.282 µM; with HOP-92 NSCLC, 0.654 µM; with MALME-3M melanoma, 0.13 µM; in the test with NCI-H460 lung, 0.395 µM; with NCI-H522 lung, less than 0.0342 µM. For the same compound, the GI50 in the test on OVCAR-3 ovarian is less than 0.0317 µM. For the same compound, the TGI is 15.4 µM in the test on A498 renal; 11.4 µM in the test with COLO 205 colon; 2.82 µM in the test on HCT-15 colon; 2.28 µM with HOP-92 NSCLC; 0.646 µM in the test on MALME-3M melanoma; more than 32.1 µM in the test with NCI-H460 lung. The TGI in the test with NCI-H522 lung is 0.638 µM; in the test on OVCAR-3 ovarian, 8.21 µM; with OVCAR-4 ovarian, more than 26 µM.

In the case of `CCOC(=O)C1=C(Nc2ccc(Br)cc2)OCC1=O`, the TGI with A498 renal, in the test with COLO 205 colon, in the test with HCT-15 colon, in the test on HOP-92 NSCLC, in the test on MALME-3M melanoma and in the test on NCI-H460 lung was more than 100 µM in each case. Besides, the TGI in the test on NCI-H522 lung, in the test with OVCAR-3 ovarian and with OVCAR-4 ovarian was more than 100 µM throughout.

As to `O=C(NNc1cnccn1)c1nc2cc(F)ccc2n2cccc12`, the GI50 in the test on A498 renal was 0.575 µM; in the test on COLO 205 colon, 0.331 µM; with HCT-15 colon, 0.183 µM; in the test on MALME-3M melanoma, 1.06 µM; with NCI-H460 lung it was 0.403 µM; with NCI-H522 lung, 0.281 µM. Also, the GI50 in the test on OVCAR-3 ovarian is 0.311 µM; in the test on OVCAR-4 ovarian, 0.211 µM. Further, the TGI is 2.67 µM in the test with A498 renal; more than 100 µM with COLO 205 colon; more than 100 µM in the test with HCT-15 colon; more than 100 µM in the test on MALME-3M melanoma; more than 100 µM in the test with NCI-H460 lung; 0.963 µM in the test with NCI-H522 lung. Moreover, the TGI in the test on OVCAR-3 ovarian was more than 100 µM; in the test on OVCAR-4 ovarian, 0.964 µM.

In the case of `CC(=O)[CH-]C(=O)c1ccccc1.CC(=O)[CH-]C(=O)c1ccccc1.O=S(=O)([O-])c1cc([O-])c2c([O-])cc(S(=O)(=O)[O-])cc2c1.[Na+].[Ti+4]`, the GI50 in the test with A498 renal was more than 100 µM; in the test on HCT-15 colon, more than 100 µM; in the test on LOX IMVI melanoma, more than 100 µM; in the test with MALME-3M melanoma, 84.5 µM; in the test on NCI-H460 lung it was more than 100 µM; in the test with NCI-H522 lung it was 70.7 µM. Besides, the figures for the GI50 in the test with OVCAR-3 ovarian and with OVCAR-4 ovarian were more than 100 µM and 68.6 µM, respectively. In addition, the TGI in the test with A498 renal, in the test with HCT-15 colon, in the test on LOX IMVI melanoma, in the test on MALME-3M melanoma, in the test on NCI-H460 lung and with NCI-H522 lung was more than 100 µM in each case. Further, the TGI in the test with OVCAR-3 ovarian and in the test with OVCAR-4 ovarian was more than 100 µM throughout.

Take `N#CC(C#N)=C1CCCOc2c1ccc1ccccc21`: the GI50 is 1.84 µM with A498 renal; more than 100 µM in the test with COLO 205 colon; more than 100 µM with HCT-15 colon; 15.8 µM with HOP-92 NSCLC; more than 100 µM in the test on MALME-3M melanoma; more than 100 µM in the test on NCI-H460 lung. The GI50 in the test on NCI-H522 lung, in the test with OVCAR-3 ovarian and with OVCAR-4 ovarian was more than 100 µM throughout. Also, the TGI in the test on A498 renal is 4.89 µM; in the test on COLO 205 colon, more than 100 µM; in the test on HCT-15 colon, more than 100 µM; in the test on HOP-92 NSCLC, 71.7 µM; with MALME-3M melanoma, more than 100 µM; in the test on NCI-H460 lung, more than 100 µM. Further, the TGI in the test on NCI-H522 lung, with OVCAR-3 ovarian and with OVCAR-4 ovarian was more than 100 µM in each case.

Consider `O=C1c2ccccc2C(=O)N1C/C=N/NS(=O)(=O)c1ccc(Br)cc1`, for which the TGI in the test on A498 renal, with COLO 205 colon, in the test on HCT-15 colon, in the test with HOP-92 NSCLC, in the test on MALME-3M melanoma and in the test on NCI-H460 lung was more than 100 µM throughout. Moreover, the TGI with NCI-H522 lung, in the test with OVCAR-3 ovarian and in the test with OVCAR-4 ovarian was more than 100 µM in each case.

For `CSc1ccc2c(cc1=O)[C@@H](NC(=O)c1cc(O)c(O)c(O)c1)CCc1cc(O)c(O)c(O)c1-2`, the TGI was more than 100 µM in the test on A498 renal; 75.3 µM in the test with COLO 205 colon; 41.4 µM in the test on HCT-15 colon; 93.3 µM in the test with MALME-3M melanoma; 44.3 µM in the test on NCI-H460 lung; 44.4 µM with NCI-H522 lung. Moreover, the TGI in the test on OVCAR-3 ovarian was found to be 70 µM; in the test on OVCAR-4 ovarian, 22.7 µM.

Take `Cc1ccc2c(c1-c1ccccc1)C(=O)OC2`: the TGI with A498 renal, in the test with COLO 205 colon, in the test on HCT-15 colon, in the test with MALME-3M melanoma, in the test on NCI-H522 lung and with OVCAR-3 ovarian was more than 100 µM in each case. Moreover, the TGI in the test with OVCAR-4 ovarian was more than 100 µM.

Turning to `CCC[CH2][Sn]1([CH2]CCC)[O]CC(COc2c(Cl)cc(Cl)cc2Cl)[O]1` (stereo unspecified), the GI50 in the test on A498 renal is 1.31 µM; in the test on COLO 205 colon it was 1.39 µM; in the test on HCT-15 colon it was 1.66 µM; in the test on HOP-92 NSCLC, 1.55 µM; in the test on MALME-3M melanoma, 1.06 µM; in the test on NCI-H460 lung, 2.67 µM. For the same compound, the results for the GI50 in the test with OVCAR-3 ovarian and with OVCAR-4 ovarian were 1.65 µM and 1.91 µM, respectively. For the same compound, the TGI came out at 2.65 µM with A498 renal; 2.75 µM in the test on COLO 205 colon; 3.31 µM in the test on HCT-15 colon; 3.06 µM with HOP-92 NSCLC; 2.34 µM with MALME-3M melanoma; 7.98 µM in the test on NCI-H460 lung. Further, the TGI was determined as 3.03 µM in the test on OVCAR-3 ovarian and 3.76 µM with OVCAR-4 ovarian.

For `CN(C)CCNc1nc2ccccc2c2c(=O)c3cc(F)ccc3sc12`, the GI50 was 2.13 µM in the test on COLO 205 colon; 1.57 µM with HCT-15 colon; 1.63 µM with LOX IMVI melanoma; 1.65 µM in the test with MALME-3M melanoma; 1.79 µM in the test with NCI-H460 lung; 1.86 µM in the test on NCI-H522 lung. Besides, the GI50 with OVCAR-3 ovarian is 1.84 µM. Moreover, the TGI came to 4.86 µM in the test on COLO 205 colon; 3.08 µM in the test on HCT-15 colon; 3.03 µM in the test with LOX IMVI melanoma; 3.15 µM with MALME-3M melanoma; 3.42 µM in the test on NCI-H460 lung; 3.79 µM in the test on NCI-H522 lung. The same compound came in with a TGI in the test on OVCAR-3 ovarian of 3.33 µM.

On to `CCc1nc(Cl)c(Cl)c(Cl)n1`, for which the TGI in the test with HCT-15 colon, in the test on LOX IMVI melanoma, in the test on MALME-3M melanoma, in the test on NCI-H460 lung, with OVCAR-3 ovarian and in the test with OVCAR-4 ovarian was more than 100 µM throughout.
